The series deals with Yap1 mRNA. Briefly: Antisense inhibition of human Yap1 in SNU-449 cells by modified oligonucleotides, single dose (Example 5, RTS36584). The class given is cell-based. The essentials: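 Values are Yap1 mRNA as percent of untreated control cells, measured by quantitative real-time RT-PCR using RTS36584 and normalised to total RNA by RIBOGREEN. Cells were SNU-449, dosed by free uptake at 2,000 nM for approximately 48 hours.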

[1] abbreviates: Table 40 (separate experiment), SNU-449 cells, 10,000 cells per well, free uptake, 2,000 nM oligonucleotide, approx. 48 hours, RTS36584, normalized to RIBOGREEN, Yap1 mRNA relative to untreated control.
Where [2] appears, read: Table 48, Yap1 mRNA level relative to untreated control, modified oligonucleotides targeting SEQ ID NO.: 1 and 2.
The mark [3] stands for this setting: Table 42 (separate experiment), SNU-449 cells, 10,000 cells per well, free uptake, 2,000 nM modified oligonucleotide, approximately 48 hours, RTS36584, normalized to RIBOGREEN, Yap1 mRNA relative to untreated control cells.
[4] abbreviates: Table 41, SNU-449 cells, 10,000 cells per well, free uptake, 2,000 nM modified oligonucleotide, approximately 48 hours, RTS36584, normalized to RIBOGREEN, Yap1 mRNA relative to untreated control cells.
The mark [5] stands for this setting: Table 50, Yap1 mRNA remaining as percent of untreated control (UT), SNU-449 cells, single dose.
Where [6] appears, read: Table 49, Yap1 mRNA level relative to untreated control, modified oligonucleotides targeting SEQ ID NO.: 1 and 2.

Strand notation (5' to 3'): a small letter for the sugar, then the base; units joined by * are phosphorothioate-linked, units joined directly phosphodiester-linked; [ ] holds rarer units or linkages, { } end groups; capitals alone tell only the bases. e = 2'-O-(2-methoxyethyl) (MOE); k = constrained ethyl (cEt); [5mC] = 5-methylcytosine; d = 2'-deoxy (DNA); m = 2'-O-methyl

With “1198425 (kA*d[5mC]*dT*d[5mC]*dT*dT*dA*dT*dA*dT*dG*kG*eT*kT*eT*kT; antisense) [Compound 1198425]”, the “YAP1 (% UTC)” value under setting [1] turned out to be 35 % UTC.

With “1198314 (kA*kA*kG*d[5mC]*dA*d[5mC]*dT*dT*dT*dT*dA*d[5mC]*kA*eT*kT*eA; antisense) [Compound 1198314]”, the “YAP1 (% UT)” value under setting [2] came to 82 % UT.

“1198228 (kA*kA*dG*d[5mC]*dA*d[5mC]*dT*dT*dT*dT*dA*e[5mC]*eA*eT*kT*kA) [Compound 1198228]”: the “YAP1 (% UTC)” value under setting [3] was 54 % UTC.

With “1198404 (kT*dT*dT*dG*dG*dA*dA*dG*dA*dT*d[5mC]*kT*eG*kA*eA*kA) [Compound 1198404]”, where the note is “Table 39, SNU-449 cells, 10,000 cells per well, free uptake, 2,000 nM oligonucleotide, approx. 48 hours, RTS36584, normalized to RIBOGREEN, Yap1 mRNA relative to untreated control”, the “YAP1 (% UTC)” value turned out to be 55 % UTC.

Turning to “1198662 (antisense kT*kT*dT*dG*dG*dA*dA*dG*dA*dT*d[5mC]*dT*kG*eA*kA*eA) [Compound 1198662]”, the “YAP1 (% UTC)” value under setting [4] was found to be 83 % UTC.

With “1198309 (k[5mC]*kT*kT*dT*dT*dA*d[5mC]*dA*dT*dT*dA*dG*kG*eA*kA*e[5mC]; antisense) [Compound 1198309]”, the “YAP1 (% UT)” value under setting [2] is on record as 85 % UT.

On to “1198847 (kT*kT*dT*dA*dG*dG*dA*dT*dG*d[5mC]*dA*kT*eG*kG*eT*kT; antisense) [Compound 1198847]”, for which the “YAP1 (% UT)” value (Table 46, Yap1 mRNA as percent of untreated control, SNU-449 cells, single dose) amounted to 51 % UT.

Regarding “1197282 (kA*kA*kA*dT*mU*dG*dT*d[5mC]*dT*d[5mC]*dA*dT*dG*k[5mC]*k[5mC]*kT) [Compound 1197282]”, the “YAP1 (% UT)” value under setting [5] was 40 % UT.

As for “1198369 (kT*kT*kA*dG*dA*d[5mC]*dT*dA*dA*dG*dT*dA*kA*eG*kG*eT; antisense) [Compound 1198369]”, the “YAP1 (% UT)” value under setting [6] turned out to be 51 % UT.

For the substance “1198306 (kA*kA*k[5mC]*dA*d[5mC]*dT*dG*dA*dG*dG*dT*dA*kT*eA*kA*e[5mC]; antisense) [Compound 1198306]”, under setting [6], the “YAP1 (% UT)” value is listed as 64 % UT.

Turning to “1198860 (kA*kA*d[5mC]*dT*d[5mC]*dT*dT*dA*dT*dA*dT*kG*eG*kT*eT*kT; antisense) [Compound 1198860]”, the “YAP1 (% UT)” value (Yap1 mRNA, percent of untreated control, modified oligonucleotides targeting SEQ ID NO: 1 and 2, Table 47) was 82 % UT.

As for “1197252 (antisense k[5mC]*kT*kT*dT*mG*dG*dA*dA*dG*dA*dT*d[5mC]*dT*kG*kA*kA) [Compound 1197252]”, the “YAP1 (% UT)” value (Table 51, Yap1 mRNA remaining as percent of untreated control (UT), SNU-449 cells, single dose) worked out at 53 % UT.

For “1197234 (antisense kT*kT*kA*dG*mA*dG*dT*dA*dT*dG*dT*dG*dG*k[5mC]*kA*kA) [Compound 1197234]”, under setting [5], the “YAP1 (% UT)” value is listed as 24 % UT.

On to “1200831 (kT*kT*kT*dA*dG*mG*dA*dT*dG*d[5mC]*dA*dT*dG*kG*kT*kT; antisense) [Compound 1200831]”, for which the “YAP1 (% UT)” value (Table 52, Yap1 mRNA, modified oligonucleotides targeting SEQ ID NO: 1 and 2) is listed as 42 % UT.

With “1198933 (kT*kT*dT*dA*dG*dG*dA*dT*dG*d[5mC]*dA*kT*dG*kG*dT*kT; antisense) [Compound 1198933]”, the “YAP1 (% UTC)” value (Table 45, Yap1 mRNA as percent of untreated control, SNU-449 cells, single dose) turned out to be 69 % UTC.

For “1198270 (kT*kA*dA*dA*dG*dT*dG*dT*dA*dT*dG*eT*e[5mC]*eA*kG*kA; antisense) [Compound 1198270]”, for the setting “Table 43 experiment, SNU-449 cells, 10,000 cells per well, free uptake, 2,000 nM, approximately 48 hours, RTS36584, Yap1 mRNA normalized to RIBOGREEN, relative to untreated control cells”, the “YAP1 (% UTC)” value was 52 % UTC.

Consider “1198655 (k[5mC]*kA*d[5mC]*dT*dT*dT*dT*dA*d[5mC]*dA*dT*dT*kA*eG*kG*eA; antisense) [Compound 1198655]”, for which the “YAP1 (% UTC)” value under setting [4] came out at 30 % UTC.

With “1198633 (kG*kG*dA*dA*dA*dT*dT*dG*dT*d[5mC]*dT*d[5mC]*kA*eT*kG*e[5mC]; antisense) [Compound 1198633]”, under setting [4], the “YAP1 (% UTC)” value is 46 % UTC.

For “1198711 (kG*kA*d[5mC]*dT*dA*dA*dG*dT*dA*dA*dG*dG*kT*eT*kT*e[5mC]; antisense) [Compound 1198711]”, the “YAP1 (% UTC)” value under setting [3] was determined as 60 % UTC.

On to “1198556 (antisense kT*kA*kT*dT*dA*dG*dA*dG*dT*dA*dT*dG*kT*kG*kG*e[5mC]) [Compound 1198556]”, for which the “YAP1 (% UT)” value under setting [6] was found to be 25 % UT.

For the substance “1198657 (kA*kG*d[5mC]*dA*d[5mC]*dT*dT*dT*dT*dA*d[5mC]*dA*kT*eT*kA*eG; antisense) [Compound 1198657]”, under setting [4], the “YAP1 (% UTC)” value was 95 % UTC.

Regarding “1198752 (kT*eT*kT*dG*dG*dA*dA*dG*dA*dT*d[5mC]*dT*eG*eA*kA*kA; antisense) [Compound 1198752]”, under setting [1], the “YAP1 (% UTC)” value is 111 % UTC.

The record behind these values is US11214803B2, “Modulators of YAP1 expression” (Ionis Pharmaceuticals, Inc., priority 2019, dated 2022).
